Experimental data taken from patent publication US20170191058A1, “PERFORIN 2 DEFENSE AGAINST INVASIVE AND MULTIDRUG RESISTANT PATHOGENS” (priority 2012, published 2017).

B1: P-2-GFP: P-2 fused via a linker at the C-terminus of its cytoplasmic domain to GFP, expressed by transfection (protein)
chain: DKPLGETGTTGFQICKNALKLPVLEVLPGGGWDNLRNVDMGRVMDLTYTNCKTTEDGQYIIPDEVYTIPQKESNLEMNSEVLESWMNYQSTTSLSINTELALFSRVNGKFSTEFQRMKTLQVKDQAVTTRVQVRNRIYTVKTTPTSELSLGFTKALMDICDQLEKNQTKMATYLAELLILNYGTHVITSVDAGAALVQEDHVRSSFLLDNQNSQNTVTASAGIAFLNIVNFKVETDYISQTSLTKDYLSNRTNSRVQSFGGVPFYPGITLETWQKGITNHLVAIDRAGLPLHFFIKPDKLPGLPGPLVKKLSKTVETAVRHYYTFNTHPGCTNVDSPNFNFQANMDDDSCDAKVTNFTFGGVYQECTELSGDVLCQNLEQKNLLTGDFSCPPGYSPVHLLSQTHEEGYSRLECKKKCTLKIFCKTVCEDVFRVAKAEFRAYWCVAAGQVPDNSGLLFGGVFTDKTINPMTNAQSCPAGYIPLNLFESLKVCVSLDYELGFKFSVPFGGFFSCIMGNPLVNSDTAKDVRAPSLKKCPGGFSQHLAVISDGCQVSYCVKAGIFTGGSLLPVRLPPYTKPPLMSQVATNTVIVTNSETARSWIKDPQTNQWKLGEPLELRRAMTVIHGDSNGMSGGEAAGITLGVTIALGIVITLAIYGTRKYKKKEYQEIEEQESLVGSLATDATVLNGEEDPSPA
modifications: left off: large carriers

Key:
P-2 mRNA = P-2 mRNA expression in mEF by TAQMAN PCR after cytokine treatment; assay type: cell-based, murine; conditions: added singly, 14 hours
Description: (§1) Murine embryonic fibroblasts (FIG. 14A), a rectal cancer cell line (FIG. 14B), myoblast cell line (FIG. 14C), and an ovarian cell line (FIG. 14D) were treated for 14 hours with 100 U/ml interferon-α, interferon-β, and interferon-γ treated. LPS was treated at 1 ng/ml; IL-1α at 10 U/ml, IL-1β at 1 ng/ml, and TNFα at 20 ng/mL. A human embryonic kidney cell line (FIG. 14E) and cervical cancer cell line (FIG. 14F) were treated with human IFN-α at 150 U/ml, IFN-β and IFN-γ at 100 U/ml. The BV2 microglial cell line was stimulated with 100 U/ml of murine Interferon-γ for 14 hours to upregulate P-2 mRNA and protein. mEF treated with IFN-γ for 14 hours (mEF), or IFN-γ for 14 hours followed by 1 hour of treatment with […] MG-132 (mEF+MG132) (FIG. 14G). Human primary keratinocytes were analyzed for protein expression with indicated recombinant human IFN treatment (FIG. 14H). mEF were treated with E. coli or M. smegmatis. At indicated time points, cells were harvested and analyzed for P-2 mRNA and compared to uninfected controls by TAQMAN™ PCR. (FIG. 14I) mEF were either not stimulated, or stimulated for 14 hours with IFN-γ at 100 U/ml. After stimulation, mEF were infected with M. smegmatis and analyzed for colony forming units at indicated time points.
Recombinant murine IL-1α, IL-1β, TNFα, IFN-γ, IFN-α, IFN-β recombinant human IFN-γ, IFN-β were purchased from preprotech. Recombant human IFN-α was purchased from R&D systems. Murine […] was supplemented at 10 U/mL where indicated. Murine IL-1β was supplemented at 1 ng/ml. Murine TNFα was supplemented at 20 ng/ml. Murine IFN-α, IFN-β and IFN-γ was supplemented with 100 U/ml. Human IFN-α was supplemented where indicated in at a concentration of 150 U/ml where indicated. Human IFN-β and IFN-γ was supplemented at a concentration of 100 U/ml. LPS was added at a concentration of 1 ng/ml.
RNA was extracted from cells following RNeasy (Qiagen) instructions. One μg of RNA was converted to cDNA using QuantiTect Reverse Transcription kit (Qiagen) following supplier's protocol. qRT-PCR was performed using TAQMAN® Gene Expression Assays (Applied Biosystems) for murine Mpeg1 and GAPDH, with the later serving as a housekeeping control gene. For human tissues, human Mpeg1 and GapDH probes were utilized. All assays were performed on the Applied Biosystems 7300 PCR platform.

M. smegmatis = assay: Gentamycin protection assay: M. smegmatis in IFN-preinduced mEF; assay type: cell-based, Mycobacterium smegmatis; conditions: uninduced mEF delayed by about 16 h
Description: as §1, with “points. […]” for “points.”

P-2 = P-2 expression in macrophages, BMDM/DC and microglia after LPS and IFN-γ; assay type: cell-based, murine; conditions: LPS and IFN-γ given together, microglia
Description: BMDM/DC were differentiated from murine bone marrow for 10 days in the presence GM-CSF and then stimulated with (FIG. 9A) LPS ([…]) and IFNγ (100 U/ml) or (FIG. 9B) poly(I:C) (3 mg/ml) for 48 hr. (FIG. 9C) BV2 microglial cells were stimulated for 24 hr with IFNγ (100 U/ml). (FIG. 9D) RAW cells were stimulated for 24 hr with LPS (Ing/ml) and IFNγ (100 U/ml). Cells were harvested at the indicated time points and analyzed for P-2 message expression by TAQMAN™ RT-PCR, relative to GAPDH.
RNA was extracted from cells according to RNeasy (Qiagen) instructions. 1 μg of RNA was converted to cDNA using QuantiTect Reverse Transcription Kit (Qiagen) RT-PCR was performed using TAQMAN® Gene Expression Assays (Applied Biosystems) for murine Mpeg-1 and GAPDH, as a housekeeping control gene. All assays were performed on Applied Biosystems 7300 PCR platform.

[1] = test system: M avium, MRSA, S. typhimurium, E. coli and M. smegmatis; assay: Gentamycin protection assay in RAW, BV2, BMDM/DC and PEM cells; assay type: cell-based; conditions: transfected cells vs vector control
Description: Gentamicin protection assay: S. typhimurium strain LT2Z, Mycobacterium avium, Mycobacterium smegmatis (ATCC), methicllin resistant Staphylococcus aureus and K12 E. coli were grown from glycerol stocks at 37° C. with shaking for 16-18 hr in Luria broth (LB) (S. typhimurium, S. aureus, and E. coli) or Middlebrook 7H9 broth (Mycobacteria) prior to infection. For Salmonella, the culture was then diluted 1:33 in LB and grown for another 3 hours to induce invasive phenotype. Macrophages or microglial cells were plated (5×10^5 cells/well of a 12 well plate) and stimulated overnight with LPS (Ing/ml) and IFN-γ (100 U/ml). Cells were infected the next day at indicated MOI for 30 minutes (S. typhimurium,) or 1 hour (all other bacteria) in 37° C., 5% CO2 incubator. Cells were washed twice with PBS and fresh medium containing 50 μg/ml gentamicin was added. […] At the indicated timepoints after adding gentamicin, the cells were washed with PBS, lysed using 0.1% Triton-X in water, diluted and plated in triplicate on agar plates and CFU determined. […]
In addition to PEM, bone marrow-derived macrophage/dendritic cells (BMDM/BMDC) and macrophage (RAW264.7) and microglia (BV2) cell lines have potent intracellular killing mechanisms for phagocytosed MRSA, Mycobacteria, S. typhimurium, and E. coli as determined by the gentamycin protection assay (FIGS. 3A-31). […]

intracellular bacteria = assay: Gentamycin protection assay in various mouse and human cells and cell lines; assay type: cell-based; conditions: complementation assays
Description: (§2) Mouse rectal carcinoma CMT-93 was transiently transfected with a P-2 siRNA pool, or with P-2-RFP. Scramble siRNA or RFP were also transfected and analyzed to serve as controls for P-2 siRNA and P-2-RFP respectively. All transfections were performed 24 hours prior to infection. 14 hours prior to infection, cells were incubated with 100 U/ml of species specific IFN-γ. At indicated time points after infection, cells were lysed and plated for CFU analysis. (FIGS. 16A-16D) mEF were transfected with P-2siRNA and complemented with siRNA resistant P-2-RFP cDNA 24 hours prior to infection. 14 hours prior to infection, interferon-γ was added. mEF were infected with late log phase S. typhimurium. At indicated time points mEFs were lysed and analyzed for colony forming units. […]
S. typhimurium strain LT2Z), Mycobacterium smegmatis, methicillin-resistant Staphylococcus aureus, and E. coli strain K12 were grown from glycerol stocks at 37° C. with shaking for 24 hours in Luria broth (S. typhimurium, S. aureus, and E. coli) or Middlebrook 7H9 broth (M. smegmatis). […] At indicated time points, cells were washed with PBS, lysed using 1% Igepal in ddH2O, diluted and plated in technical triplicate on LB agar plates (S. typhimurium, S. aureus, E. coli) or Middlebrook 7H11 plates (M. smegmatis) and CFU determined after sufficient colony growth. […]

Salmonella = assay: Gentamycin protection assay: intracellular Salmonella in mEF; assay type: cell-based, Salmonella typhimurium; conditions: P-2 siRNA co-transfected
Description: as §2
S. typhimurium strain LT2Z), Mycobacterium smegmatis, methicillin-resistant Staphylococcus aureus, and E. coli strain K12 were grown from glycerol stocks at 37° C. with shaking for 24 hours in Luria broth (S. typhimurium, S. aureus, and E. coli) or Middlebrook 7H9 broth (M. smegmatis). […] At indicated time points, cells were washed with PBS, lysed using 1% Igepal in ddH2O, diluted and plated in technical triplicate on LB agar plates (S. typhimurium, S. aureus, E. coli) or Middlebrook 7H11 plates (M. smegmatis) and CFU determined after sufficient colony growth.

Molecule | P-2 mRNA induction in mEF (P-2 mRNA) | time to kill intracellular M. smegmatis (M. smegmatis) | P-2 mRNA and protein expression (P-2) | effect of overexpression on intracellular killing [1] | activity of transfected fusion protein in killing of intracellular bacteria (intracellular bacteria) | complementation of endogenous P-2 knock down in mEF: killing activity (Salmonella)
IFNγ | up-regulates P-2 mRNA | 1 to 5 h | upregulate P-2 mRNA and protein expression |  |  | 
B1 |  |  |  | increases bactericidal activity | functional in killing of intracellular bacteria | fully reconstitutes bactericidal activity
